In PMC5783810 (Saudi Pharmaceutical Journal : SPJ, 2017):
In brackets after ≈: the same amount, converted by molar mass.

Experiment: Water solubility
Details: for fold increase in water solubility relative to trolox: relative to trolox (0.1 g/L); for solubility at 10 min: water, thermodynamic from solid

Row | fold increase in water solubility relative to trolox | Compound | solubility at 10 min [µg/mL]
1 | 20 fold | 6-Hydroxy-2,5,7,8-tetramethylchromane-2-carboxylate 1-oxyl-2,2,5,5-tetramethylpirrolidin-4-ammonium [2h] | –
2 | – | Cc1c(C)c2c(c(C)c1O)CCC(C)(C(=O)O)O2 (centres unmarked) [compound 1, 6-hydroxy-2,5,7,8-tetra methyl chromane-2-carboxylic acid, reference compound] | 100 (≈ 400 µM)
3 | – | CCN(CC)CC.Cc1c(C)c2c(c(C)c1O)CCC(C)(C(=O)O)O2 (centres unmarked) [2n, 6-Hydroxy-2,5,7,8-tetramethylchromane-2-carboxylate, triethylammonium] | 3000
4 | 20–590 fold | 6-Hydroxy-2,5,7,8-tetramethylchromane-2-carboxylate, 1-(1H-indol-3-yl)-N,N-dimetilmetanammonium [2q] | –
5 | 10 fold | 6-Hydroxy-2,5,7,8-tetramethylchromane-2-carboxylate 1-oxyl-2,2,6,6-tetramethylpiperidine-4-ammonium [2g] | –
6 | 20–590 fold | 6-Hydroxy-2,5,7,8-tetramethylchromane-2-carboxylate, 4-(N-acetylantranoiloxy)-8,9-dihydroxy-1α,14α,16β-trimethoxy-N-ethylammonium-18-norakonan [2p] | –
7 | 20–590 fold | 6-Hydroxy-2,5,7,8-tetramethylchromane-2-carboxylate, 3-(3,4-dimethoxybenzoate)-8-ammoniybicyclo[3.2.1]octane [2m] | –

Row | Compound | fold increase in water solubility relative to trolox | solubility at 10 min [µg/mL]
8 | Cc1c(C)c2c(c(C)c1O)CCC(C)(C(=O)O)O2.O=c1cccc2n1CC1CNCC2C1 (stereo not drawn) [2l, 6-Hydroxy-2,5,7,8-tetramethylchromane-2-carboxylate, 1,2,3,4,5,6-hexahydro-1,5-methano-8H-pyridinium-[1,2-α][1,5]-diazotsin-8-one] | 20–590 fold | –
